From patent publication US20130236529A1, “COMPOSITION AND METHODS TO ENHANCE ANTI-OXIDATION, GUT FLORA AND IMMUNITY IN PETS” (FLAVITPURE, INC., priority 2012, published 2013)

Experiments:
[1] = ORAC hydro antioxidant capacity assay
Description: The majority of HAT-based assays apply a competitive reaction scheme, in which antioxidant and substrate compete for thermally generated peroxyl radicals through the decomposition of azo compounds. ORAC is an assay for the […] oxygen radical absorbance capacity. The ORAC hydro tests the capacity dihydroquercetin generated hydrogen atom transfer (HAT) to compete for thermally generated peroxyl radicals and hydroxyl radicals. For the latter it is necessary to use the ORAC assay test. Unlike electron transfer based assays that measure an antioxidant's reducing capacity, and the hat-based assays measure the hydrogen atom donating capacity. The hydrogen atom transfer is a key step in the radical chain reaction. Therefore, the hat-based assays are more relevant to the radical chain-breaking antioxidant capacity. Among all the hat-based assays, ORAC adopted an AUC (area under curve) technique to quantify antioxidant capacity. […] This approach unifies the lag time method and initial rate method, and it is particularly useful for food samples, which often contain multiple ingredients and have complex reaction kinetics. Therefore, the ORAC assay has been broadly applied in academics and the food and supplement industry as the method of choice to quantify antioxidant capacity. […]

[2] = tested on: umbilical vein endothelial (HUVE) cells; details: cited from earlier work
CYP2E1 = details: microarray, in the presence of taxifolin; cited from earlier work
NQO1 = details: microarray, in the presence of taxifolin; cited from earlier work
GSTM1 = details: microarray, in the presence of taxifolin; cited from earlier work
[3] = tested on: human lung embryonic fibroblasts (TIG-1); details: TIG-1 cells; cited from earlier work
[4] = relative to quercetin; cited from earlier work
[5] = oxidation of 2′-deoxyguanosine, Fenton reaction catalyzed by copper; cited from earlier work

Molecule: O=C1c2c(O)cc(O)cc2O[C@H](c2ccc(O)c(O)c2)[C@H]1O [Dihydroquercetin]
- orachydro value ([1]; per 420 mg capsule): ≥ 300 micromole of trolox equivalent per 420 mg capsule
- orachydro value ([1]; per gram): ≥ 800 micromole trolox equivalent per gram
- 50% lethal concentration [2]: > 200 µmol
- expression of phase I detoxification enzyme CYP2E1 (CYP2E1): down regulated
- expression of phase II detoxification enzyme NQO1 (NQO1): upregulated
- expression of phase II detoxification enzyme GSTM1 (GSTM1): upregulated
- 50% lethal concentration [3]: > 300 µmol
- times less mutagenic than quercetin [4]: 400 times
- pro-oxidant activity [5]: did not present pro-oxidant activity

Molecule: catechin [reference compound]
- pro-oxidant activity [5]: did not present pro-oxidant activity
